Measurements taken from US20080194492A1, “Plant Extracts for the Treatment of Incresed Bone Resorption” (priority 2003, published 2008).
Entries after “also recorded” stand apart in the source; their conditions may differ.

Tested on: osteoclasts of new-born rats
Test: osteoclast pit assay (in vitro resorption activity of osteoclasts on ivory slices)
Assay type: cell-based, rat
Settings: for magnitude of the inhibition when PTH is added compared with without (in words): PTH 10^−8 M added to cultures; for inhibition of osteoclast resorption activity in vitro (in words): osteoclast pit assay, dose not given
Protocol: It will be appreciated that the osteoclast pit assay is a well established in vitro model of bone resorption and readily known to one skilled in the art. Briefly, medium containing a sample to be tested, e.g. 30 mg or less of freeze-dried hydrophilic fraction A per ml, is added to osteoclasts of new-born rats settled on ivory slices. After 24 hours of incubation, the tartrate-resistant acid phosphatase positive multi-nucleated cells, i.e. osteoclasts, are counted. Subsequently, the number of resorption pits is determined. […] For the analysis of statistical significance, the ratios of the treated groups±their respective SEMs are compared to the 95% confidence interval of the SEM of the negative control. […] The inhibitory effect on osteoclasts is assessed by counting the osteoclast resorption pits on the ivory slice. […] To assess in vitro the bone resorbing inhibitory activity, the osteoclast pit assay is used. Medium containing 30 mg or less of freeze-dried fraction per ml is added to osteoclasts of new-born rats settled on ivory slices. After 24 hours of incubation, the tartrate-resistant acid phosphatase positive multi-nucleated cells, i.e. osteoclasts, are counted. Subsequently, the number of resorption pits is determined. […] For the analysis of statistical significance, the ratios of the treated groups±their respective SEMs are compared to the 95% confidence interval of the SEM of the negative control. • a) TLC-Screening and Yields of the RP-MPLC Fractionations. Bioassay (in vitro assessment of osteoclast activity). Osteoclasts were isolated from femora and tibiae of 2-day-old rats and settled for 40 min onto 4×4 mm ivory slices used as the mineralized substrate. After washing off non-adherent cells, individual slices were transferred to 48-well tissue culture plates and incubated for 24 h at 37° C. in a 5% CO2/air atmosphere (14;15) in medium containing 10% fetal bovine serum (FBS) with or without the material to be tested. The concentration of bicarbonate in the MEM Earle's medium was reduced to 15 mM by addition of 12M HCl. In each experiment calcitonin (salmon calcitonin, Novartis Pharma, Basel, Switzerland) was added as positive control at the concentration of 10^-11 M or 10^-12 M. In one experiment parathyroid hormone (PTH; bovine 1-34, Bachem, Bubendorf, Switzerland) was added at the concentration of 10^-8 M, in order to stimulate bone resorption. For each material to be tested 8 slices were used, for the untreated control 2×8 slices were used. After fixation osteoclasts were stained for tartrate-resistant acid-phosphatase (TRAP) (kit 386-A, Sigma, Buchs, Switzerland) and were counted blinded as TRAP positive (TRAP+) multinucleated (more than 2 nuclei) cells (MNC). After removing the cells, the slices were sputter coated with gold and the resorption pits counted blinded in a process described in Vitté, C.; Fleisch, H.: Guenther, H. L. Bisphosphonates induce osteoblasts to secrete an inhibitor of osteoclast-mediated resorption. Endocrinology 1996, 137, 2324-2333. Osteoclastic resorption activity is calculated as the ratio: resorption pits/TRAP+MNC.

CT: salmon calcitonin, Novartis Pharma, positive control [reference compound]
Pits/TRAP+ cells ± SEM (10^−12 M, 24 h, neg. control 0.489 ± 0.128): 0.061 ± 0.063 | Pits/TRAP+ cells ± SEM (10^−12 M, neg. control 0.739 ± 0.138): 0.116 ± 0.030 | magnitude of the inhibition when PTH is added compared with without (in words): somewhat smaller

C/C=C/[S+]([O-])C[C@H](NC(=O)CC[C@H](N)C(=O)O)C(=O)O (relative stereo) [A1-4C, γ-L-glutamyl-trans-S-1-propenyl-L-cysteine sulfoxide]
activity on osteoclast resorption (in words) (0.53 mg/mL, i.e. 1.7 mM GPCS): active | Pits/TRAP+ cells ± SEM (0.53 mg/mL, neg. control 0.739 ± 0.138): 0.325 ± 0.108 | inhibition of osteoclast resorption activity (in words) (2 mM): not significant | resorption activity of osteoclasts (in words) (2, 4 and 8 mM, with or without PTH 10^−8 M (FIG. 4)): inhibits the resorption activity of osteoclasts dose-dependently | magnitude of the inhibition when PTH is added compared with without (in words): somewhat smaller | minimal effective dose (cultures not stimulated with PTH): around 2 mM | minimal effective dose, graphical interpolation from FIG. 4 (cultures stimulated with PTH): around 3 mM | inhibition of osteoclast resorption activity in vitro (in words): only active fraction | inhibition of osteoclast resorption activity in vitro (in words) (listed as Fraction A 1-4C): inhibited osteoclast activity nearly as strong as fraction A 1-4 | inhibition of osteoclast resorption activity in vitro (in words) (listed as Fraction A1-4C): inhibits osteoclast activity similar to fraction A1-4 | inhibition of osteoclast resorption activity in vitro (in words) (listed as fraction A1-4C): significantly (p<0.5) inhibit bone resorption; also recorded: inhibiting osteoclast activity
